Experiments:
[1] = test system: BaF3-CD74-TRKA-G595R cells (p-TRKA, ERK, PLCγ); experiment: Western blot of TRK signaling; format: cell-based, Murine; conditions: 6 h treatment
Protocol: (§1) Cells were treated with various concentrations of each tested compound for a designated time. Then cells were lysed using 1 × SDS sample lysis buffer (CST recommended) with protease and phosphatase inhibitors. […] The films were blocked with 5% fat-free milk in TBS solution containing 0.5% Tween-20 for 4 h at room temperature, then incubated with the corresponding primary antibody (1:1000–1:200) overnight at 4 °C. After washing with TBST, HRP-conjugated secondary antibody was incubated for 2 h. The protein signals were visualized by ECL Western Blotting Detection Kit (Thermo Scientific, Waltham, MA, USA), and detected with Amersham Imager 600 system (GE, Boston, MA, USA).

[2] = test system: BaF3-CD74-TRKA-G667C cells (p-TRKA, ERK, PLCγ); experiment: Western blot of TRK signaling; format: cell-based, Murine; conditions: 6 h treatment
Protocol: as §1

[3] = test system: BaF3-CD74-TRKA-WT cells (p-TRKA, ERK, PLCγ); experiment: Western blot of TRK signaling; format: cell-based, Murine; conditions: 6 h treatment
Protocol: as §1

[4] = test system: TRKs-xDGF mutants TRKA-G667C, TRKB-G709C and TRKC-G696C in stable BaF3 models; experiment: Western blot of xDFG mutant TRK signal pathway (Figure S2); format: cell-based, Murine; conditions: 6 h
Protocol: as §1

TRKC WT [5] = target: T1, TRKC WT (Homo sapiens, UniProt Q16288); experiment: Bio-layer interferometry (BLI) Octet binding assay
T1 construct: residues 526–839 from the kinase domain; made in house
T1 sequence (Q16288 526-839): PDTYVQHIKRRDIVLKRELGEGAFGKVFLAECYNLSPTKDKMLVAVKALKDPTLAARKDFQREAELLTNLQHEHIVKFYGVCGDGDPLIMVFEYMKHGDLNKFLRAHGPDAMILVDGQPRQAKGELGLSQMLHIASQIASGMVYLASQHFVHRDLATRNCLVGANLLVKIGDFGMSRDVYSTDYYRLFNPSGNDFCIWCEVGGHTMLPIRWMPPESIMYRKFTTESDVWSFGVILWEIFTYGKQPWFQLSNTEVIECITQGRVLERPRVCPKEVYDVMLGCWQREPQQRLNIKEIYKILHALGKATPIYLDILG
Protocol: (§2) Biolayer interferometry (BLI) assays were performed with the Octet K2 machine (ForteBio, Inc., Fremont, CA, USA). […] Excess biotin was removed by column chromatography (PD MiniTrap^TM G-25 Desalting column, Lot#17030445), and the residue was diluted to 400 μL with PBS and immobilized onto Super streptavidin biosensor chips (ForteBio, Cat#18–5057). A duplicate set of sensors was incubated in an assay buffer (PBS containing 0.02% Tween20 and 0.1% BSA) with 5% DMSO but without protein for use as a background binding control. Both sets of sensors were blocked with a solution of 10 μg/mL biocytin for 1 min at rt. Drug concentrations ranged from 0.74 to 180 nmol/L (6 doses). Data was analyzed by the FortéBio Data Analysis 8.1 software (FortéBio, Fremont, CA, USA) using a double reference subtraction (sample and sensor references).

TRKC WT [6] = experiment: Bio-layer interferometry (BLI) Octet binding assay; parameters: species or system Human; conditions: TRKC-WT and TRKC-G696C
Protocol: as §2

[7] = test system: BaF3-CD74-TRKA-G667C xenograft; experiment: BaF3-CD74-TRKA-G667C xenograft model; format: in vivo; conditions: for TGI (tumor growth inhibition): intraperitoneally once daily, 12 consecutive days
Parental BaF3 (+IL3) = experiment: BaF3 cell proliferation, CCK-8 assay; conditions: Mus musculus, BaF3, 72 h, read-out: IC50 (nM ± SD) Parental BaF3 (+IL3)
Protocol: (§3) Murine BaF3 cells were purchased from JRCB cell bank. The BaF3 cell lines, which stably express natively-fused TRKA/B/C or various point mutants, were self-established by following previously described procedures. Briefly, NTRK genes were totally synthesized and cloned into pCDNA3.1(+) vectors (Invitrogen, Carlsbad, CA, USA). […] Stable strains were established by selection of cells 2 weeks post-transfection with 800 μg/mL G418 (Merck, Whitehouse Station, NJ) and further selection after the withdrawal of interleukin-3 (IL-3, R&D) for 2 weeks. All of BaF3 stable cell lines were verified by DNA sequencing, protein expression and anti-proliferation activity against positive drugs. […] All cells were grown at 37 °C in a humidified 5% CO2 atmosphere.
(§4) Cells were placed in 96-well plates (5000~8000/well) in complete medium. […] IC50 values were calculated by concentration-response curve fitting using GraphPad Prism 5.0 software. Each IC50 value is expressed as mean ± SD.

BaF3 CD74-TRKA = experiment: BaF3 cell proliferation, CCK-8 assay; conditions: Mus musculus, BaF3, 72 h, read-out: IC50 (nM ± SD) WT CD74-TRKA
Protocol: as §3, §4

BaF3 QKI-TRKB = experiment: BaF3 cell proliferation, CCK-8 assay; conditions: Mus musculus, BaF3, 72 h, read-out: IC50 (nM ± SD) WT QKI-TRKB
Protocol: as §3, §4

BaF3 ETV6-TRKC = experiment: BaF3 cell proliferation, CCK-8 assay; conditions: Mus musculus, BaF3, 72 h, read-out: IC50 (nM ± SD) WT ETV6-TRKC
Protocol: as §3, §4

BaF3 CD74-TRKA-F589L = experiment: BaF3 cell proliferation, CCK-8 assay; conditions: Mus musculus, BaF3, 72 h, read-out: IC50 (nM ± SD) Gatekeeper CD74-TRKA-F589L
Protocol: as §3, §4

BaF3 CD74-TRKA-G667C = experiment: BaF3 cell proliferation, CCK-8 assay; conditions: Mus musculus, BaF3, 72 h, read-out: IC50 (nM ± SD) xDFG CD74-TRKA-G667C
Protocol: as §3, §4

BaF3 ETV6-TRKC-G696C = experiment: BaF3 cell proliferation, CCK-8 assay; conditions: Mus musculus, BaF3, 72 h, read-out: IC50 (nM ± SD) xDFG ETV6-TRKC-G696C
Protocol: as §3, §4

[8] = test system: BaF3 cells with gatekeeper mutations (TRKA^F589L, TRKB^F663L, TRKC^F617L); experiment: BaF3 cell proliferation, summary over gatekeeper lines; conditions: Mus musculus, BaF3, read-out: IC50 in cells with gatekeeper mutations
Protocol: as §3, §4

Cc1c(C#Cc2cnc3cnc(-c4ccc(N)cc4)cn23)cccc1C(=O)Nc1cc(CN2CCN(C)CC2)cc(C(C)C)c1 [JND4135, 3-((6-(4-aminophenyl)imidazo[1,2-a]pyrazin-3-yl)ethynyl)-N-(3-isopropyl-5-((4-methylpiperazin-1-yl)methyl)phenyl)-2-methylbenzamide]
concentration from which phosphorylation of TRKA and downstream ERK, PLCγ decreased [1]: 40 nM | concentration from which phosphorylation of TRKA and downstream ERK, PLCγ decreased [2]: 1.6 nM | concentration from which phosphorylation of TRKA and downstream ERK, PLCγ decreased [3]: 8 nM | dose that effectively inhibits the activation of TRKs-xDGF mutants [4]: 8.0 nM | koff (TRKC WT [5]; Koff, read-out: dissociation rate with TRKC-WT): 0.000278 s⁻¹ | Kd (TRKC WT [5]; read-out: Kd, binding affinity to TRKC-WT): 2.57 nM | fold slower dissociation rate than that of control drugs (TRKC WT [6]): 3.81–27.85 fold | TGI (tumor growth inhibition) ([7]; 20 mg/kg): 34.2% | TGI (tumor growth inhibition) ([7]; 40 mg/kg): 81.0% | tolerability (mortality, body weight) ([7]; 20 and 40 mg/kg/day, 12 days): no mortality or significant body weight loss | activation of TRKA and downstream molecules PLCγ-1 and ERK in tumor tissues ([7]; tumor tissues at end of treatment, Western blot): effectively inhibit | IC50 (Parental BaF3 (+IL3)): 1950 ± 25.1 nM | IC50 (BaF3 CD74-TRKA): 10.4 ± 3.2 nM | IC50 (BaF3 QKI-TRKB): 2.4 ± 0.6 nM | IC50 (BaF3 ETV6-TRKC): 10.4 ± 4 nM | IC50 (BaF3 CD74-TRKA-F589L): 75 ± 12.7 nM | IC50 (BaF3 CD74-TRKA-G667C): 1.4 ± 0.2 nM | IC50 (BaF3 ETV6-TRKC-G696C): 1.3 ± 0.7 nM | IC50 [8]: 37.3 to 178 nM
